Data from article PMC8797470, “Disruption of the pentraxin 3/CD44 interaction as an efficient therapy for triple‐negative breast cancers” (Clinical and Translational Medicine, 2022).
Ends that are not written are not given here.

Experiments:
MDA-MB-231 cells = assay: Sphere formation assay; type: cell-based, human; settings: MDA-MB-231 cells, with PTX3 treatment
Description: Note that 5 × 10^3 MDA‐MB‐231 cells were seeded in ultralow attachment plates (Corning) per well. Then, cultured in conditional medium containing the treatment of TGF‐β1, PTX3, PTX3NA, RI37, GI40, IgG1κ, PTX3 Ab‐10 or PTX3 Ab‐49 and the DMEM/F12 (Gibco) added with B27 (Invitrogen), 10 ng/ml bFGF (Peprotech) and 20 ng/ml EGF (Abcam). Number of spheres was calculated by microscope after 2 weeks.

[1] = system: RANKL, MMP2, NANOG and TWIST2 transcription in MDA-MB-231 cells; assay: Real-time quantitative PCR of PTX3-induced genes; type: cell-based, human; settings: MDA-MB-231 cells, with PTX3 treatment
From the text: TRIsure RNA extraction reagent (Invitrogen) extracted total RNA. SuperScript™ III Reverse Transcriptase (Invitrogen) was used to synthesis cDNA. Next, SensiFAST™ SYBR (BIOLINE) was applied to perform real‐time quantitative PCR (Q‐PCR) assay. CFX connect Real‐Time PCR System (BIO‐RAD) executed real‐time fluorescence monitoring and the melting curve analysis according to the manufacturer's recommendations. The following pairs of specific primers—human CEBPD (F): 5′‐[…]‐3′ and CEBPD (R): 5′‐[…]‐3′, human PTX3 (F): 5′‐ […]‐3′ and PTX3 (R): 5′‐ […]‐3′, human MMP2 (F): 5′‐ […]‐3′ and MMP2 (R): 5′‐ […]‐3′, human RANKL (F): 5′‐ AGAGC GCAGATGGATCCTAA‐3′ and RANKL (R): 5′‐ TTCCTTTTGCACAGC TCCTT‐3′, human TWIST2 (F): 5′‐[…]‐3′ and TWIST2 (R): 5′‐[…]‐3′, human NANOG (F): 5′‐[…]‐3′ and NANOG (R): 5′‐ […]‐3′, human GAPDH (F): 5′‐ […]‐3′ and GAPDH (R): 5′‐ […]‐3′.

Substance | PTX3-induced sphere-forming ability (stemness) (MDA-MB-231 cells) | PTX3-induced transcription of RANKL, MMP2, NANOG and TWIST2 [1]
GI40: peptide, PTX3 amino acids 320–359 (GGGFDETLAFSGRLTGFNIWDSVLSNEEIRETGGAESCHI; also: biotin, position not given here) | suppressed | suppressed
RI37: peptide, PTX3 amino acids 200–236 (RPMRLESFSACIWVKATDVLNKTILFSYGTKRNPYEI; also: biotin, position not given here) | suppressed | suppressed
